In patent US11866431B2, “Bicyclic compounds” (Vivace Therapeutics, Inc., priority 2018, dated 2024):
pIC50: −log10 of the molar value.

System: 8XTBD luciferase reporter (YAP reporter) in HEK293T cells
Experiment: YAP Reporter Assay
Assay type: cell-based
Details: Homo sapiens, HEK-293T, 24 h, read-out: Firefly Luciferase IC50 (μM)
Outline: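 HEK293T cells stably carrying 8XTBD firefly luciferase and TK-renilla (3×10^3 cells/well) dosed 3-4 h after plating with compounds from 3 μM final, 1:3 dilution, 10 points, quadruplicates. After 24 h at 37° C, Dual-Glo readings gave IC50 and maximum inhibition reported separately for firefly and renilla.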

| SMILES | IC50 [µM] |
| --- | --- |
| C[C@H](NC(=O)c1ccc2c(-c3ccc(C(F)(F)F)cc3)cccc2c1)C1CN(CCO)C1 [Compound 140, N-[(1S)-1-[1-(2-hydroxyethyl)azetidin-3-yl]ethyl]-5-[4-(trifluoromethyl)phenyl]naphthalene-2-carboxamide] | 0.1 to 1 |

Same assay, conditions: Homo sapiens, HEK-293T; HEK293T cells stably transfected with 8XTBD luciferase reporter and pRLTK; 24-hr incubation; top concentration 3 μM; read-out: Firefly Luciferase IC50

| SMILES | pIC50 |
| --- | --- |
| COC[C@H](C)NC(=O)c1cnc2c(-c3ccc(C(F)(F)F)cc3)cccc2c1 [Compound 102, (S)—N-(1-methoxypropan-2-yl)-8-(4-(trifluoromethyl)phenyl)quinoline-3-carboxamide] | > 7.00 |
| C[C@H](NC(=O)c1cnc2c(-c3ccc(C(F)(F)F)cc3)cccc2c1)c1ccccn1 [Compound 103, (S)—N-(1-(pyridin-2-yl)ethyl)-8-(4-(trifluoromethyl)phenyl)quinoline-3-carboxamide] | > 7.00 |
| CC(C)NC(=O)c1cnc2c(-c3ccc(C(F)(F)F)cc3)cc(OC(F)(F)F)cc2c1 [Compound 104, N-isopropyl-6-(trifluoromethoxy)-8-[4-(trifluoromethyl)phenyl]quinoline-3-carboxamide] | > 7.00 |
| COc1cc(-c2ccc(C(F)(F)F)cc2)c2ncc(C(=O)NC(CO)c3ccccn3)cc2c1 (stereo not shown) [Compound 105, N-[2-hydroxy-1-(2-pyridyl)ethyl]-6-methoxy-8-[4-(trifluoromethyl)phenyl]quinoline-3-carboxamide] | > 7.00 |
| COc1cc(-c2ccc(C(F)(F)F)cc2)c2ncc(C(=O)N[C@H](C)c3ccccn3)cc2c1 [Compound 106, 6-methoxy-N-[(1R)-1-(2-pyridyl)ethyl]-8-[4-(trifluoromethyl)phenyl]quinoline-3-carboxamide] | 6.00 to 7.00 |
| COC[C@@H](C)NC(=O)c1cnc2c(-c3ccc(C(F)(F)F)cc3)cc(OC)cc2c1 [Compound 107, 6-methoxy-N-[(1R)-2-methoxy-1-methyl-ethyl]-8-[4-(trifluoromethyl)phenyl]quinoline-3-carboxamide] | > 7.00 |
| COc1cc(-c2ccc(C(F)(F)F)cc2)c2ncc(C(=O)N[C@@H](C)c3ccccn3)cc2c1 [Compound 108, 6-methoxy-N-[(1S)-1-(2-pyridyl)ethyl]-8-[4-(trifluoromethyl)phenyl]quinoline-3-carboxamide] | > 7.00 |
| COC[C@H](C)NC(=O)c1cnc2c(-c3ccc(C(F)(F)F)cc3)cc(OC)cc2c1 [Compound 109, 6-methoxy-N-[(1S)-2-methoxy-1-methyl-ethyl]-8-[4-(trifluoromethyl)phenyl]quinoline-3-carboxamide] | > 7.00 |
| O=C(NC(CO)c1ccccn1)c1ccc2c(-c3ccc(C(F)(F)F)cc3)cccc2c1 (stereo not shown) [Compound 110, N-(2-hydroxy-1-(pyridin-2-yl)ethyl)-5-(4-(trifluoromethyl)phenyl)-2-naphthamide] | > 7.00 |
| C#CCNC(=O)c1ccc2c(-c3ccc(C(F)(F)F)cc3)cccc2c1 [Compound 111, N-(prop-2-yn-1-yl)-5-(4-(trifluoromethyl)phenyl)-2-naphthamide] | > 7.00 |
| C#CCCNC(=O)c1ccc2c(-c3ccc(C(F)(F)F)cc3)cccc2c1 [Compound 112, N-(but-3-yn-1-yl)-5-(4-(trifluoromethyl)phenyl)-2-naphthamide] | > 7.00 |
| N#CCNC(=O)c1ccc2c(-c3ccc(C(F)(F)F)cc3)cccc2c1 [Compound 113, N-(cyanomethyl)-5-(4-(trifluoromethyl)phenyl)-2-naphthamide] | > 7.00 |
| N#CCCNC(=O)c1ccc2c(-c3ccc(C(F)(F)F)cc3)cccc2c1 [Compound 114, N-(2-cyanoethyl)-5-(4-(trifluoromethyl)phenyl)-2-naphthamide] | > 7.00 |
| O=C(NCCSSCCNC(=O)c1ccc2c(-c3ccc(C(F)(F)F)cc3)cccc2c1)c1ccc2c(-c3ccc(C(F)(F)F)cc3)cccc2c1 [Compound 115, N,N′-(disulfanediylbis(ethane-2,1-diyl))bis(5-(4-(trifluoromethyl)phenyl)-2-naphthamide)] | 5.52 to 6.00 |
| CC(C)NC(=O)c1cnc2c(-c3ccc(C(F)(F)F)cc3)cc(OC3CC3)cc2c1 [Compound 116, 6-cyclopropoxy-N-isopropyl-8-(4-(trifluoromethyl)phenyl)quinoline-3-carboxamide] | > 7.00 |
| O=C(NC1(c2ccccc2)CC1)c1ccc2c(-c3ccc(C(F)(F)F)cc3)cccc2c1 [Compound 121, N-(1-phenylcyclopropyl)-5-[4-(trifluoromethyl)phenyl]naphthalene-2-carboxamide] | > 7.00 |
| CS(=O)(=O)NC(=O)c1cnc2c(-c3ccc(C(F)(F)F)cc3)cc(OC3CC3)cc2c1 [Compound 122, 6-cyclopropoxy-N-(methylsulfonyl)-8-(4-(trifluoromethyl)phenyl)quinoline-3-carboxamide] | 6.00 to 7.00 |
| CS(=O)(=O)NC(=O)c1cnc2c(-c3ccc(C(F)(F)F)cc3)cc(OC(F)(F)F)cc2c1 [Compound 123, N-(methylsulfonyl)-6-(trifluoromethoxy)-8-(4-(trifluoromethyl)phenyl)quinoline-3-carboxamide] | 5.52 to 6.00 |

| SMILES | pIC50 |
| --- | --- |
| CNCCNC(=O)c1ccc2c(-c3ccc(C(F)(F)F)cc3)cccc2c1 [Compound 124, N-(2-(methylamino)ethyl)-5-(4-(trifluoromethyl)phenyl)-2-naphthamide] | 6.00 to 7.00 |
| CN(C#N)CCNC(=O)c1ccc2c(-c3ccc(C(F)(F)F)cc3)cccc2c1 [Compound 125, N-(2-(N-methylcyanamido)ethyl)-5-(4-(trifluoromethyl)phenyl)-2-naphthamide] | > 7.00 |
| CNCCCNC(=O)c1ccc2c(-c3ccc(C(F)(F)F)cc3)cccc2c1 [Compound 126, N-(3-(methylamino)propyl)-5-(4-(trifluoromethyl)phenyl)-2-naphthamide] | 6.00 to 7.00 |
| CN(C#N)CCCNC(=O)c1ccc2c(-c3ccc(C(F)(F)F)cc3)cccc2c1 [Compound 127, N-(3-(N-methylcyanamido)propyl)-5-(4-(trifluoromethyl)phenyl)-2-naphthamide] | 6.00 to 7.00 |
| C[C@H](NC(=O)c1ccc2c(-c3ccc(C(F)(F)F)cc3)cccc2c1)c1cccc(N)n1 [Compound 128, (S)—N-(1-(6-aminopyridin-2-yl)ethyl)-5-(4-(trifluoromethyl)phenyl)-2-naphthamide] | 6.00 to 7.00 |
| C[C@@H](NC(=O)c1ccc2c(-c3ccc(C(F)(F)F)cc3)cccc2c1)c1cccc(N)n1 [Compound 129, (R)—N-(1-(6-aminopyridin-2-yl)ethyl)-5-(4-(trifluoromethyl)phenyl)-2-naphthamide] | > 7.00 |
| O=C(N[C@H](CO)C1CNC1)c1ccc2c(-c3ccc(C(F)(F)F)cc3)cccc2c1 [Compound 130, N-[(1S)-1-(azetidin-3-yl)-2-hydroxy-ethyl]-5-[4-(trifluoromethyl)phenyl]naphthalene-2-carboxamide] | 5.52 to 6.00 |
| C[C@@H](NC(=O)c1ccc2c(-c3ccc(C(F)(F)F)cc3)cccc2c1)C1CN(CCO)C1 [Compound 133, (R)—N-(1-(1-(2-hydroxyethyl)azetidin-3-yl)ethyl)-5-(4-(trifluoromethyl)phenyl)-2-naphthamide] | 6.00 to 7.00 |
| C[C@@H](NC(=O)c1ccc2c(-c3ccc(C(F)(F)F)cc3)cccc2c1)C1CN(CC(F)F)C1 [Compound 137, (R)—N-(1-(1-(2,2-difluoroethyl)azetidin-3-yl)ethyl)-5-(4-(trifluoromethyl)phenyl)-2-naphthamide] | 6.00 to 7.00 |
| C[C@@H](NC(=O)c1cnc2c(-c3ccc(C(F)(F)F)cc3)cccc2c1)C1(O)CNC1 [Compound 141, (R)—N-(1-(3-hydroxyazetidin-3-yl)ethyl)-8-(4-(trifluoromethyl)phenyl)quinoline-3-carboxamide] | 5.52 to 6.00 |
| CC(C)N1CC([C@H](C)NC(=O)c2ccc3c(-c4ccc(C(F)(F)F)cc4)cccc3c2)C1 [Compound 143, N-[(1S)-1-(1-isopropylazetidin-3-yl)ethyl]-5-[4-(trifluoromethyl)phenyl]naphthalene-2-carboxamide] | 5.52 to 6.00 |
| C[C@@H](NC(=O)c1ccc2c(-c3ccc(C(F)(F)F)cc3)cccc2c1)C1CN(CCF)C1 [Compound 144, (R)—N-(1-(1-(2-fluoroethyl)azetidin-3-yl)ethyl)-5-(4-(trifluoromethyl)phenyl)-2-naphthamide] | 6.00 to 7.00 |
| CCN1CC([C@@H](C)NC(=O)c2ccc3c(-c4ccc(C(F)(F)F)cc4)cccc3c2)C1 [Compound 148, N-[(1R)-1-(1-Ethylazetidin-3-yl)ethyl]-5-[4-(trifluoromethyl)phenyl]naphthalene-2-carboxamide] | 6.00 to 7.00 |
| CCN1CC([C@H](C)NC(=O)c2ccc3c(-c4ccc(C(F)(F)F)cc4)cccc3c2)C1 [Compound 149, N-[(1S)-1-(1-Ethylazetidin-3-yl)ethyl]-5-[4-(trifluoromethyl)phenyl]naphthalene-2-carboxamide] | 6.00 to 7.00 |
| CCN1CC([C@@H](C)NC(=O)c2cnc3c(-c4ccc(C(F)(F)F)cc4)cccc3c2)C1 [Compound 150, N-[(1R)-1-(1-Ethylazetidin-3-yl)ethyl]-8-[4-(trifluoromethyl)phenyl]quinoline-3-carboxamide] | 5.52 to 6.00 |
| C[C@@H](NC(=O)c1ccc2c(-c3ccc(C(F)(F)F)cc3)cccc2c1)C1CN(C)C1 [Compound 153, N-[(1R)-1-(1-methylazetidin-3-yl)ethyl]-5-[4-(trifluoromethyl)phenyl]naphthalene-2-carboxamide] | 6.00 to 7.00 |
| C[C@H](NC(=O)c1ccc2c(-c3ccc(C(F)(F)F)cc3)cccc2c1)C1(O)CNC1 [Compound 155, (S)—N-(1-(3-hydroxyazetidin-3-yl)ethyl)-5-(4-(trifluoromethyl)phenyl)-2-naphthamide] | 6.00 to 7.00 |
| C[C@@H](NC(=O)c1cnc2c(-c3ccc(C(F)(F)F)cc3)cccc2c1)C1CN(C)C1 [Compound 156, N-[(1R)-1-(1-methylazetidin-3-yl)ethyl]-8-[4-(trifluoromethyl)phenyl]quinoline-3-carboxamide] | 6.00 to 7.00 |
